According to patent US12233064B1, “Antarctic tunicate Synoicum species-derived alkaloids and methods of treatment” (University of South Florida, priority 2019, dated 2025):

Tests used:
[1] = system: zebrafish embryos; test: Developmental (phenotypic) zebrafish bioassay; assay type: in vivo, Danio rerio; settings: for Final C tested (concentration most representative of the phenotype) / MTC (Maximum Tolerated Concentration) / concentration at which interesting phenotype demonstrated: zebrafish embryos; for Final C tested (concentration most representative of the phenotype): 24 h post fertilization; for MTC (Maximum Tolerated Concentration): compound added 4 h, end 24 h post fertilization; for phenotype of treated embryos compared to control: 24h post-fertilization, FIG. 16
Method: Wildtype Danio rerio fish were used for the assay. Once the zebrafish eggs were collected, they were placed in fresh media along with methylene blue, to deter fungal growth. The embryos were sorted and placed in a 96-well plate and the volume was standardized. For the purpose of this screening it was determined that the optimal point to add the compounds was 4 hours post fertilization and the ending point of the assay was 24 hours post fertilization. The delay in growth and the dysmorphologies were monitored and assessed.
A developmental zebrafish assay was utilized to test the activity of the extract, the subsequent fractions, and the isolated compounds. […] The Maximum Tolerated Concentration (MTC) was determined for each compound, alongside the minimum active concentration for each compound. The final tested concentration was determined as the one most representative of the phenotype.

[2] = system: A549 (Human lung adenocarcinoma epithelial cell line); settings: synthetic Meridianin A; cited from earlier work
[3] = system: Plasmodium falciparum; settings: synthetic Meridianin A; cited from earlier work
[4] = system: Leishmaniasis; test: Leishmaniasis assay

SMILES	Final C tested (concentration most representative of the phenotype) [1] [µM]	MTC (Maximum Tolerated Concentration) [1] [µM]	cytotoxicity to A549 [2]	growth of P. falciparum [3]	result of Leishmaniasis assay [4]	phenotype of treated embryos compared to control [1]	concentration at which interesting phenotype demonstrated [1] [µM]
Nc1nccc(C2(O)C(=O)Nc3ccccc32)n1 (stereo not shown) [Australindolone A]	300	1000					
Nc1nccc(-c2c[nH]c3cccc(O)c23)n1 [Meridianin A]	30	100	cytotoxic to A549	inhibit the growth of P. falciparum	notable		
Nc1nccc(-c2c[nH]c3cc(Br)cc(O)c23)n1 [Meridianin B]	100	300					
Nc1nccc(-c2c[nH]c3ccc(Br)cc23)n1 [Meridianin C]	3	10				truncation of the anterior-posterior axis	3
Nc1nccc(-c2c[nH]c3cc(Br)ccc23)n1 [Meridianin D]	65	100					
Nc1nccc(-c2c[nH]c3c(Br)ccc(O)c23)n1 [Meridianin E]	10	100					
Nc1nccc(-c2c[nH]c3cc(Br)c(Br)cc23)n1 [Meridianin F]	2	10				truncation of the anterior-posterior axis	2
Nc1nccc(-c2c[nH]c3ccccc23)n1 [Meridianin G]	100	300					
Nc1nccc(-c2c[nH]c3c(Br)cc(Br)c(O)c23)n1 [Meridianin H]	60	100					
